In US20220387375A1, “TRPV1 ACTIVATION-MODULATING COMPLEX MIXTURES OF CANNABINOIDS AND/OR TERPENES” (GBS Global Biopharma, Inc., priority 2018, published 2022):
Entries after “also recorded” stand apart in the source; their conditions may differ. Where two headings read alike, the source gives them in different places.

How the values were obtained:
Assay type in all cases: cell-based
[1] = molecular target: T1, TRPM8 (Homo sapiens, UniProt Q7Z2W7); assay: Bulk calcium assay (Fluo-4) in HEK cells overexpressing TRPM8
T1 construct: host or cells: HEK TRex293
Method: (§1) HEK TRexTRPV1 were cultured in DMEM, 10% Fetal Bovine Serum, 2 mM Lglutamine, 10 μg/ml Blasticidin (Calbiochem, San Diego Calif.), 400 μg/ml Zeocin (InvivoGen, San Diego Calif.), where indicated transgene expression was induced using 1 μg/ml Tetracycline for 16-24 hrs. Unless otherwise indicated, basal expression of TRPV1 without induction was sufficient for these studies, and comparisons were made to untransfected HEK where needed. HEKTRex293 over-expressing human TRPV2, human TRPA1 and human TRPM8 were obtained from SB Drug Discovery (Glasgow, Scotland) and cultured as described above. The cannabinoids and terpenes were assayed in HEK cells that have been transfected with the TRPV1 ion channel protein. These cells are called HEK293-V1 cells.
(§2) Cells were washed and incubated with 0.2 micromolar Fluo-4 for 30 minutes at 37° C. in a standard modified Ringer's solution of the following composition (in mM): NaCl 145, KCl 2.8, CsCl 10, CaCl2 10, MgCl2 2, glucose 10, Hepes·NaOH 10, pH 7.4, 330 mOsm. Cells were transferred to 96-well plates at 50,000 cells/well and stimulated as indicated. Calcium signals were acquired using a Flexstation 3 (Molecular Devices, Sunnydale, USA). Data was analyzed using SoftMax® Pro 5 (Molecular Devices). Where indicated, nomically calcium-free external conditions were achieved by the preparation of 0 mM CaCl2 Ringer solution containing 1 mM EGTA.
(§3) Calcium responses mediated by TRPA1, TRPM8, TRPV2, and TRPV1 were tested by calcium assay in the cell culture system. Cells were washed and incubated with 0.2 μM fluo-4 acetoxymethyl ester (“Fluo-4”) for 30 minutes at 37° C. in a standard modified Ringer's solution of the following composition (in mM): NaCl 145, KCl 2.8, CsCl 10, CaCl2 10, MgCl2 2, glucose 10, Hepes·NaOH 10, pH 7.4, 330 mOsm. Cells were transferred to 96-well plates at 50,000 cells/well and stimulated with 10 μM myrcene diluted in DMSO. Vehicle (DMSO) was used as a negative control. Vehicle traces were subtracted from the myrcene traces for each cell line.
(§4) The potential for different cannabinoids to target specific TRP channels, or to co-target more than one channel type, are of potential therapeutic options for the treatment and management of pain. Comparison of the impacts of a variety of cannabinoid on overexpression systems for TRPV2, TRPM8, and TRPA1 were performed in a side-by-side fashion, under bulk calcium assays where the measurements with each trace representing averaged triplicates of 100,000 cells per sample. As shown in FIGS. 41-43 and summarized in Table 3, there are clear differences in responsiveness between cannabinoids at a single channel type than between channel types to a given cannabinoid.

[2] = molecular target: T2, TRPV1 (Rattus norvegicus, UniProt O35433); assay: Whole-cell patch clamp of TRPV1 currents in HEK293 cells overexpressing TRPV1 (HEK293-V1); settings: for inward current induced: cannabinoid at 50 (FIGS. 3A, 4A, 6A, 7A), applied at data point 60; for time course of induced TRPV1 current (sustained or inactivating): cannabinoid at 50, 5 μM myrcene or 1 μM capsaicin; for Max I amplitude: 120 s, Ca 1 mM external, unbuffered internal calcium
T2 construct: FLAG; expressed in transfected cells
Method: as §1
This technique is used to study ionic currents from HEK293-V1. The voltage across the cell membrane is controlled and the ionic currents associated with changes in voltage are measured. A micropipette tip is pulled to a few micrometers in diameter followed by heating the tip to produce a smooth surface that assists in forming a high resistance seal with the cell membrane. To obtain this high resistance seal, the micropipette is pressed against a cell membrane and suction is applied. The membrane then fuses onto the glass surface creating a high resistance in the gigaohm range. This makes it possible to isolate electronically the ionic currents measured across the membrane patch or across the entire cell.
Patch-clamp experiments were performed in the whole-cell configuration at 21-25° C. Patch pipettes had resistances of 2-3 MΩ. Data was acquired with PatchMaster software (HEKA, Lambrecht, Germany), controlling an EPC-9 amplifier. Voltage ramps of 50 ms spanning the voltage range from −100 to 100 mV were delivered from a holding potential of 0 mV at a rate of 0.5 Hz over a period of 500 ms to 180 seconds (3 minutes). Voltages were corrected for a liquid junction potential of 10 mV. Currents were filtered at 2.9 kHz and digitized at 100 μs intervals. Capacitive currents were determined and corrected before each voltage ramp. The development of currents for a given potential was extracted from individual ramp current records by measuring the current amplitudes at voltages of −80 mV and +80 mV. Data were analyzed with FitMaster (HEKA, Lambrecht, Germany), and IgorPro (WaveMetrics, Lake Oswego, Oreg., USA). Where applicable, statistical errors of averaged data are given as mean±s.e.m with n determinations. The activated current amplitudes are analyzed by nA rather than pA/pF. […] Also the cell size selected for patching was in the 9 -12 pF range.
For patch-clamp recordings, HEK293 cells were kept in a standard sodium-based external Ringer's solution containing (mM): 140 NaCl, 1 CaCl2, 2 MgCl2, 2.8 KCl, 11 glucose, 10 HEPES-NaOH with a pH of 7.2 and osmolarity of 300 mOsmol. To assess the effects of external Calcium (Ca) on TRPV1 inactivation kinetics, Ca at different levels were tested including 0, 1, and 3 mM. In Experiments with zero external Ca, EGTA 10 mM was added and the Na concentration was lowered to 130 mM to maintain standard osmotic conditions at 300 mOsmol. For rapid external solution application and exchanges we used the SmartSquirt delivery system (Auto-Mate Scientific, San Francisco Calif., USA) that included four cryo tubes allowing for solution exchanges within one patch. This system included a ValveLink TTL interface between the electronic valves and the EPC10 amplifier (HEKA, Lambrecht, Germany). This electronic configuration allowed for programmable solution changes via the PatchMaster software (HEKA, Lambrecht, Germany).

[3] = molecular target: T3, TRPA1 (Homo sapiens, UniProt O75762); assay: Bulk calcium assay (Fluo-4) in HEK cells overexpressing TRPA1
T3 construct: host or cells: HEK TRex293
Method: as §1, §2, §3, §4

[4] = after cannabinoid at 50 (voltage ramp)

T2 sequence (O35433 whole entry): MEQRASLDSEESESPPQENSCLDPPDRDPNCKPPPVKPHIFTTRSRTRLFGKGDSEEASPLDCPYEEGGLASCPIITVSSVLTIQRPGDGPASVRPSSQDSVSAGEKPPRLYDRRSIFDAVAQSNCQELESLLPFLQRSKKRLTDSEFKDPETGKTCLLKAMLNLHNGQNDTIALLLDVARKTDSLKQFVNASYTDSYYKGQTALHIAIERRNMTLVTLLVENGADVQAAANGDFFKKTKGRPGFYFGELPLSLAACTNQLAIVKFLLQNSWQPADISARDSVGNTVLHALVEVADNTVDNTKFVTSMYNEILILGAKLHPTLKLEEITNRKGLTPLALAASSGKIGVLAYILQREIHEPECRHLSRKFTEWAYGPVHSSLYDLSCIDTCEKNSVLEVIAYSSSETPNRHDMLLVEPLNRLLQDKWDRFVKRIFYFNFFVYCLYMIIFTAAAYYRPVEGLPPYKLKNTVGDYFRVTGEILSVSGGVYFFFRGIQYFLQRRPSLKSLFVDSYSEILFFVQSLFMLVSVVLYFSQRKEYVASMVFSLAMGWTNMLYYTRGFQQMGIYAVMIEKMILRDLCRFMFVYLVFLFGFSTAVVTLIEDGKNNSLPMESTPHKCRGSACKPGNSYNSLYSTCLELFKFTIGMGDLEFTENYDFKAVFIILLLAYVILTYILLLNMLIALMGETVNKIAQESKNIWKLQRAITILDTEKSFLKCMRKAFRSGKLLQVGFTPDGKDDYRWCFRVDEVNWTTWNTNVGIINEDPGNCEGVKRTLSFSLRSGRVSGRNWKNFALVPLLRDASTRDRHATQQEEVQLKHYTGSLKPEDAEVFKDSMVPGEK
T3 sequence (O75762 whole entry): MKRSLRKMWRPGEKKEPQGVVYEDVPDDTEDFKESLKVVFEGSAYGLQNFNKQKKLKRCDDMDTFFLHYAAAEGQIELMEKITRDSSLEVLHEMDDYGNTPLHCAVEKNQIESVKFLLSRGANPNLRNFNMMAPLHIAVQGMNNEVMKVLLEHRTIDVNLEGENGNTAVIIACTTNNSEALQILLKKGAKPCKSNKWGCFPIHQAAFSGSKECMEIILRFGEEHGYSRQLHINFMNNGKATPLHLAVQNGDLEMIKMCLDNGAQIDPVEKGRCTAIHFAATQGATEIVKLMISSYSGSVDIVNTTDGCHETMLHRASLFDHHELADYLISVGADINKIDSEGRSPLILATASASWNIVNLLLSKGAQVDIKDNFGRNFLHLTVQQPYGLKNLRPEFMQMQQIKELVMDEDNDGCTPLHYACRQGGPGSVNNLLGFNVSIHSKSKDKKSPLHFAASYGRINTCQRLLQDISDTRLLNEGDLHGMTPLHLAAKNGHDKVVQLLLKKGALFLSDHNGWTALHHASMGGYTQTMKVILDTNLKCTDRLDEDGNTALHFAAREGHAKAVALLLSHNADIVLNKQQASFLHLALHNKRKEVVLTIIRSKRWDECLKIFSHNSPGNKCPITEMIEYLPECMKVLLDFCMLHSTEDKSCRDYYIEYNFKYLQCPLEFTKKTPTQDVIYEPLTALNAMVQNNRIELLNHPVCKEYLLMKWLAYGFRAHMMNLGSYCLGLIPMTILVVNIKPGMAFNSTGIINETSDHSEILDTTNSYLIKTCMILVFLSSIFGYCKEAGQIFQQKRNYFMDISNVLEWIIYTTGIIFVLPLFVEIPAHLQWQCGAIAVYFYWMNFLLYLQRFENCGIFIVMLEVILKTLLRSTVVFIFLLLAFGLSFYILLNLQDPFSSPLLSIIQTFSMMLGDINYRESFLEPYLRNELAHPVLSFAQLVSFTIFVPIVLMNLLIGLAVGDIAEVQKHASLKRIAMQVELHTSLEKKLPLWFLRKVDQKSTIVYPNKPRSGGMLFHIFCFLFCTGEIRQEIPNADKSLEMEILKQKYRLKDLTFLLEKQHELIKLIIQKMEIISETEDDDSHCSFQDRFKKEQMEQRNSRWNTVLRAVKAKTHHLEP
T1 sequence (Q7Z2W7 whole entry): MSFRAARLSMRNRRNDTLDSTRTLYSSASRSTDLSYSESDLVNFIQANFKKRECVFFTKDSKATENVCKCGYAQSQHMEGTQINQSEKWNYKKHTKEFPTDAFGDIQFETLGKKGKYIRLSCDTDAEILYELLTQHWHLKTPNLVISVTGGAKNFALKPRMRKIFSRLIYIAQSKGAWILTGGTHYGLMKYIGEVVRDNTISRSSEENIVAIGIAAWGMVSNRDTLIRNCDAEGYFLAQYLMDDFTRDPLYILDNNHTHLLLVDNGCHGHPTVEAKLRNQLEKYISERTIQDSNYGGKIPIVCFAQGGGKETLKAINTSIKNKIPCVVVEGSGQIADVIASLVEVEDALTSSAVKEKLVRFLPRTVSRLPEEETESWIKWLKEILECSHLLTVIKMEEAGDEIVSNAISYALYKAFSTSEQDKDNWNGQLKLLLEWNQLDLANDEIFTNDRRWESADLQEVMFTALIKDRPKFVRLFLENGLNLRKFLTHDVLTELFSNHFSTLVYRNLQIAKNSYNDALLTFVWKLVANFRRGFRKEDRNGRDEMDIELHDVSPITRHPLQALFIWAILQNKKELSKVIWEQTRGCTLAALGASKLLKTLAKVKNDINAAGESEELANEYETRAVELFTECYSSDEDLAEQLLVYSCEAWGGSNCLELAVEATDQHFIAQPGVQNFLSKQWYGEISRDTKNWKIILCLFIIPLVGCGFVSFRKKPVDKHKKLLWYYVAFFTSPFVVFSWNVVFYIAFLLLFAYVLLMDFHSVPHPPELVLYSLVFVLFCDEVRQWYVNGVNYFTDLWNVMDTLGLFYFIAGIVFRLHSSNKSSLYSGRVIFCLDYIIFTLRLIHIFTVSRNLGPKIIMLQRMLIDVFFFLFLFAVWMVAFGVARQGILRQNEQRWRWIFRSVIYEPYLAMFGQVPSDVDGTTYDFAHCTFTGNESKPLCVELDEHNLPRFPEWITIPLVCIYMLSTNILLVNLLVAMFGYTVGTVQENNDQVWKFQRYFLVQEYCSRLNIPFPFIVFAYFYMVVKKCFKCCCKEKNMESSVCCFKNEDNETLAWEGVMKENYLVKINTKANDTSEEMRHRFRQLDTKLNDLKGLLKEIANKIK

Row | Compound | mean maximal Ca^2+ signal RFU achieved 0-180 s (SD), TRM8 [1] | IV relationship / TRPV1 channel state [2, 4] | inward current induced [2] | time course of induced TRPV1 current (sustained or inactivating) [2] | Rate of inactivation ([2]; dose 10 micromolar) [dpsec^−1] | Time to max ([2]; dose 10 micromolar) [s] | Max I amplitude ([2]; dose 10 micromolar) [nA] | Rate of inactivation ([2]; dose 30 micromolar) | Time to max ([2]; dose 30 micromolar) [s] | Max I amplitude ([2]; dose 30 micromolar) [nA] | Rate of inactivation ([2]; dose 50 micromolar) | Time to max ([2]; dose 50 micromolar) [s] | Max I amplitude ([2]; dose 50 micromolar) [nA] | Rate of inactivation ([2]; dose 150 micromolar) | Time to max ([2]; dose 150 micromolar) [s] | Max I amplitude ([2]; dose 150 micromolar) [nA] | mean maximal Ca^2+ signal RFU achieved 0-180 s (SD), TRPA1 [3] | also measured
1 | CCCCCc1cc(O)c(C/C=C(\C)CCC=C(C)C)c(O)c1 [CBG, Cannabigerol] | 2.25 (0.46) RFU | outwardly-rectifying IV curve consistent with un-dilated TRPV1 (state 1) | 4-5 nA | sustained | 0 | 120 | 0.2 | .007 dpsec^−1 | 94 | 0.6 | .008 dpsec^−1 | 96 | 0.7 | .014 dpsec^−1 | 92 | 0.9 | 10.22 (1.29) RFU | attainment of the pore-dilated state ([2]; 50 μM, induction time 25 hours (FIGS. 37-40C)): lack of attainment of the pore-dilated state; EC50 ([2]; calculated from Imax per dose, HEK-TRPV1 patch clamp, read-out: EC50 at TRPV1): 19 µM
2 | CCCCCc1cc(O)c2c(c1)OC(C)(C)c1ccc(C)cc1-2 [CBN, Cannabinol] | 0.09 (0.01) RFU | outwardly-rectifying IV curve consistent with un-dilated TRPV1 (state 1) | 0.5-2 nA | rapidly inactivating | 0 | 174 | 0.4 | 0 dpsec^−1 | 176 | 0.6 | .010 dpsec^−1 | 120 | 1.5 | .019 dpsec^−1 | 82 | 1.8 | 10.97 (0.4) RFU | EC50 [2]: 36 µM; inward and outward current magnitude compared to 50 μM CBN ([2]; 10 μM CBN): greater inward and outward current magnitude; IV relationship / TRPV1 channel state ([2]; after 10 μM CBN): becomes more linear; also recorded: partial state transition from state 1 to state 2; current development and inactivation ([2]; constant external calcium, internal Ca2+ 0 nM, 180 nM, 620 nM, FCa (FIGS. 23, 24)): activated quickly, but rapidly inactivated with a slower kinetic profile
